Assays:
[1] = target: Trx-6×His-BCL6 (human BCL6 BTB domain covering amino-acid sequence 5-129) (Homo sapiens (Human), UniProt P41182); test: HTRF in vitro assay (BCL6 / BCOR-AF633 peptide); type: binding; settings: further generated data, 1 nM Trx-6×His-BCL6, 300 nM BCOR-AF633 peptide, 0.5 nM anti-6×His-Terbium cryptate; for IC50: read-out: HTRF pIC50 (converted)
Method: The % inhibition at each concentration was calculated by normalising FRET ratio to the appropriate high (DMSO with all reagents) and low (DMSO without BCL6) controls.

[2] = target: endogenous BCL6 protein (Homo sapiens (Human), UniProt P41182); test: Immunofluorescence-based BCL6 degradation assay; type: cell-based; settings: 2 hours with compound
Method: Immunofluorescence-Based BCL6 Degradation Assay
DC50 values (compound concentration at which 50% of endogenous BCL6 protein is degraded) were determined in SUDHL-4 cells (American Type Culture Collection) in an immunofluorescence-based assay using an InCell2200 high content imaging system (GE Healthcare). […] After 20 hours cell culture at 37° C./CO2 incubator, compounds were dispensed in the cell culture plate using ECHO550 acoustic dispenser (Labcyte, Inc.), as 8 point-concentration response (ranging from 5 nM to 10 μM) in 0.67% final DMSO concentration. Cells were incubated with compound for 2 hours at 37° C./CO2 incubator followed by fixation in 4.5% formaldehyde (37% formaldehyde solution, Sigma catalogue F8775) at room temperature for 15 min. […] Blocking and cell permeabilisation were performed by incubating the fixed cells for 1 hour at room temperature in 1×TBS, 5% BSA, 1% Triton X100, followed by three washes on PW384 plate washer. Primary and secondary antibodies were prepared in 1×TBS, 1% BSA, 0.2% Triton X100. […] After incubation in each antibody, cells were washes four times in 1×TBS-0.05% tween on PW384 plate washer. Cells were finally incubated for 60 min with nuclear staining RedDot2 dye (Biotium) at 0.5× the stock concentration in 1×TBS. BCL6 expression in the absence or presence of compound was detected on InCell2200 with 20× objective and quantified on InCell Analyser 3.7.2 workstation (GE Healthcare). The % response at each concentration was calculated by normalising BCL6 expression in the presence of compound to the appropriate high (DMSO) and low (DMSO with 7 μM CCT369260) controls.

[3] = tested on: SU-DHL-4 cells; test: 14-day cell proliferation assay (CellTiter Glo); type: cell-based; settings: Homo sapiens, SU-DHL-4, 336 h; SU-DHL4 cells, 14 days
Method: 14-Day Cell Proliferation Assay
SU-DHL-4 cells were seeded in 96-well culture plates at a density of 2000 cells/well in RPMI-1640 medium (Sigma-Aldrich) supplemented with 10% FBS (Gibco). Compounds were initially dispensed into 96-well U-bottom plates using an Echo 550 acoustic dispenser (Labcyte Inc.), then diluted in RPMI-1640 medium and transferred onto the cells. Cells were treated with 8 compound concentrations in duplicate, ranging from 1 nM to 10 μM, in a final DMSO concentration of 0.1% and final volume of 100 μl. Cells were incubated with compound for 14 days, with medium changes at days 3, 7 and 10 carried out as follows: fresh 96-well cell culture plates were prepared containing 100 μl medium plus compound at the assay concentrations (white plates were used on day 10 to optimise luminescence measurement). Assay plates containing cells were vortexed to mix and cell density in one control well was counted using a Coulter Z2 cell counter (Beckman Coulter). The volume of medium containing 2000 cells in the control well was calculated and this volume of cells was transferred from every well of the assay plates to the corresponding well of the fresh plates containing compound. After 14 days, CellTiter Glo reagent (Promega) was added to the medium in each well of the assay plate at a ratio of 1:2, mixed on a plate shaker, then incubated at room temperature for 10 minutes. Luminescence was measured using an Envision plate reader (Perkin Elmer) and the relative luminescence at each compound concentration, compared to DMSO alone, was calculated. G150 were determined using a 4-parameter curve fit in Dotmatics (Bishops Stortford, UK).

| SMILES | HTRF pIC50 [1] | Degradation assay in SU-DHL4 cells (pDC50) [2] | GI50 [3] [nM] | IC50 [1] [nM] |
| --- | --- | --- | --- | --- |
| CC1CCCN(c2ncc(Cl)c(Nc3ccc4c(c3)n(CCC(C)(C)O)c(=O)n4C)n2)C1.O=CO (centres unmarked) [Example 20g] | 6.07 | 6.29 | 750 | – |
| Cn1c(=O)n(CCC(C)(C)O)c2cc(Nc3nc(N4CCCC(C(F)(F)F)C4)ncc3Cl)ccc21 (centres unmarked) [Example 20h] | 6.49 | 6.30 | – | – |
| Cn1c(=O)n(CCC(C)(C)O)c2cc(Nc3nc(N4CCC(F)(F)C(CO)C4)ncc3Cl)ccc21 (centres unmarked) [Example 35a, 5-((5-chloro-2-(4,4-difluoro-3-(hydroxymethyl)piperidin-1-yl)pyrimidin-4-yl)amino)-3-(3-hydroxy-3-methylbutyl)-1-methyl-1,3-dihydro-2H-benzo[d]imidazol-2-one] | – | – | 1140 | – |
| COCC1CN(c2ncc(Cl)c(Nc3ccc4c(c3)n(CCC(C)(C)O)c(=O)n4C)n2)CCC1(F)F (centres unmarked) [Example 35b, 5-((5-chloro-2-(4,4-difluoro-3-(methoxymethyl)piperidin-1-yl)pyrimidin-4-yl)amino)-3-(3-hydroxy-3-methylbutyl)-1-methyl-1,3-dihydro-2H-benzo[d]imidazol-2-one] | 6.70 | 6.35 | 1840 | – |
| CC1CN(c2ncc(Cl)c(Nc3ccc4c(c3)n(CCC(C)(C)O)c(=O)n4C)n2)CCC1(F)F (centres unmarked) [Example 35c, 5-((5-chloro-2-(4,4-difluoro-3-methylpiperidin-1-yl)pyrimidin-4-yl)amino)-3-(3-hydroxy-3-methylbutyl)-1-methyl-1,3-dihydro-2H-benzo[d]imidazol-2-one] | 6.53 | 6.75 | 440 | – |
| Cn1c(=O)n(CCC(C)(C)O)c2cc(Nc3nc(N4CCC(F)(F)CC4)ncc3Cl)ccc21 [Example 35d, 5-((5-chloro-2-(4,4-difluoropiperidin-1-yl)pyrimidin-4-yl)amino)-3-(3-hydroxy-3-methylbutyl)-1-methyl-1,3-dihydro-2H-benzo[d]imidazol-2-one] | 6.48 | 6.59 | 1130 | – |
| C[C@@H]1CN(c2ncc(Cl)c(Nc3ccc4c(c3)n(CCC(C)(C)O)c(=O)n4CCC(C)(C)O)n2)C[C@H](C)C1(F)F [Example 35j, 5-((5-chloro-2-((3R,5S)-4,4-difluoro-3,5-dimethylpiperidin-1-yl)pyrimidin-4-yl)amino)-1,3-bis(3-hydroxy-3-methylbutyl)-1,3-dihydro-2H-benzo[d]imidazol-2-one] | – | 6.43 | 760 | 1740 |
| Cn1c(=O)n(CCC(C)(C)O)c2cc(Nc3cc(N4CCC(F)(F)CC4)ncc3Cl)ccc21 [Example 36a, 5-((5-chloro-2-(4,4-difluoropiperidin-1-yl)pyridin-4-yl)amino)-3-(3-hydroxy-3-methylbutyl)-1-methyl-1,3-dihydro-2H-benzo[d]imidazol-2-one] | – | 6.35 | – | 813 |
